The values that follow come from ChEMBL document CHEMBL1154198, “Chemical genetics of Plasmodium falciparum” (Nature, 2010).

Broadly, the EC50 is the concentration that produces a half-maximal response. Low readings indicate greater potency, high ones weaker potency.

The subject of assay [1] is Plasmodium falciparum. Nature of the assay: ST_JUDE: Plasmodium falciparum K1 EC50 (uM) as measured by SYBR green dye. The assay is classed as functional, organism-based.
The subject of assay [2] is Plasmodium falciparum. In words: ST_JUDE: Plasmodium falciparum 3D7 EC50 (uM) as measured by SYBR green dye. Format: functional, organism-based.

Consider `C#CC[n+]1ccn2c(C)ccc2c1C`, for which the EC50 in the assay with Plasmodium falciparum [1] was determined as 1.69 µM; in the assay with Plasmodium falciparum [2], 5.58 µM.

Regarding `C/C(=N/NC(N)=S)C1C(=O)c2ccccc2C1=O`, the EC50 in the assay on Plasmodium falciparum [1] and in the assay on Plasmodium falciparum [2] was over 15 µM each time.

Take `CSc1nc(N)c2c(n1)N=C1CC(C)(C)CC(O)=C1C2c1cccs1` (stereo not drawn): the EC50 with Plasmodium falciparum [1] and with Plasmodium falciparum [2] was over 15 µM each time.

As for `CCCCN(C)Cc1c(C)nc2ccc(OCc3ccccc3)cc2c1O`, the EC50 in the assay with Plasmodium falciparum [1] and with Plasmodium falciparum [2] was over 15 µM in each case.

With `CCOC(=O)c1ccc2nc(C)cc(Nc3ccc(C)c(Cl)c3)c2c1`, the EC50 in the assay on Plasmodium falciparum [1] is over 15 µM; with Plasmodium falciparum [2], 1.9 µM.

As to `CC[n+]1cccc(-c2nc3ccccc3s2)c1`, the EC50 amounted to 5.92 µM in the assay on Plasmodium falciparum [1] and 7.66 µM in the assay on Plasmodium falciparum [2].

Consider `CCN(CC)CCCC(C)Nc1nc(C)nc2cc(Cl)ccc12` (stereo not drawn), for which the figures for the EC50 in the assay with Plasmodium falciparum [1] and with Plasmodium falciparum [2] were over 15 µM and 6.6 µM, respectively.

For `CC(=O)Nc1ccc(S(=O)(=O)Nc2ccc(Nc3nc(C)cc(N4CCCC4)n3)cc2)cc1`, the values for the EC50 in the assay with Plasmodium falciparum [1] and with Plasmodium falciparum [2] were 3.44 µM and 0.57 µM, respectively.

As to `Oc1ccc(Br)cc1CN1CCN(Cc2ccccc2C(F)(F)F)CC1`, the EC50 is 0.45 µM in the assay on Plasmodium falciparum [1] and 1.88 µM in the assay with Plasmodium falciparum [2].

For the compound `Fc1ccc(-c2nc3ncccn3c2Nc2cccc(C(F)(F)F)c2)cc1`, the EC50 in the assay with Plasmodium falciparum [1] is 1.22 µM; in the assay with Plasmodium falciparum [2], 0.921 µM.

With `CCOC(=O)c1c(NC(=O)c2ccc(Cl)cc2Cl)sc(C)c1C`, the 50% effective concentration (EC50) with Plasmodium falciparum [1] and in the assay on Plasmodium falciparum [2] was over 15 µM in each case.

On to `CN(C)c1ccc(N2C(N)=NC(N)=NC2(C)C)cc1`, for which the EC50 was over 15 µM in the assay on Plasmodium falciparum [1] and 0.0728 µM in the assay with Plasmodium falciparum [2].

Consider `C=CC[n+]1c(C)n(N)c2ccccc21`, for which the EC50 with Plasmodium falciparum [1] and with Plasmodium falciparum [2] was over 15 µM throughout.

On to `O=C(CSc1nccn1-c1ccc(F)cc1)Nc1cc(C(F)(F)F)ccc1Cl`, for which the results for the EC50 in the assay with Plasmodium falciparum [1] and in the assay with Plasmodium falciparum [2] were 4.11 µM and 2.96 µM, respectively.

In the case of `CCOC(=O)c1cccc(NC(=O)CC2C(=O)N(c3ccc(Cl)cc3)C(=O)N2C2CCCC2)c1` (stereo not drawn), the EC50 stood at 2.7 µM in the assay with Plasmodium falciparum [1] and 1.42 µM with Plasmodium falciparum [2].

In the case of `CCC1(C)CC(CCNCc2ccc(F)cc2)(c2ccc(C)cc2)CCO1` (stereo not drawn), the results for the EC50 in the assay on Plasmodium falciparum [1] and with Plasmodium falciparum [2] were 0.974 µM and 1.11 µM, respectively.

On to `COC(=O)c1c(S(=O)(=O)N2CCCC2)sc2c1CCN(CCC(C)c1ccccc1)C2` (stereo not drawn), for which the values for the EC50 in the assay with Plasmodium falciparum [1] and in the assay with Plasmodium falciparum [2] were 4.78 µM and 4.39 µM, respectively.

For the compound `CN(C)c1ccc(Nc2c3ccccc3nc3ccccc23)cc1`, the EC50 in the assay with Plasmodium falciparum [1] is 1.11 µM; with Plasmodium falciparum [2], 1.46 µM.

Consider `CCOc1ccc2nc(C)cc(Nc3cccc(OC)c3)c2c1`, for which the EC50 came out at 6.76 µM in the assay with Plasmodium falciparum [1] and 3.41 µM with Plasmodium falciparum [2].

Take `CCOc1ccc(Nc2cc(C)nc3c(C)cc(C)cc23)cc1`: the EC50 was 6.67 µM in the assay on Plasmodium falciparum [1] and 3.73 µM with Plasmodium falciparum [2].

Turning to `CCc1nnc(NC(=O)CCCOc2ccc(Cl)cc2)s1`, the EC50 in the assay with Plasmodium falciparum [1] and in the assay on Plasmodium falciparum [2] was over 15 µM in each case.

As to `COc1ccc(CCN2C(=O)c3[nH]nc(-c4ccccc4O)c3C2c2ccc(F)cc2)cc1` (stereo not drawn), the EC50 in the assay on Plasmodium falciparum [1] and with Plasmodium falciparum [2] was over 15 µM each time.

Regarding `COc1ccccc1C1CC(c2ccccc2)=NN1C(=O)c1ccco1` (stereo not drawn), the EC50 in the assay on Plasmodium falciparum [1] stood at 4.33 µM; in the assay on Plasmodium falciparum [2], 0.594 µM.

Turning to `CCOc1ccc(CCNC(=O)Nc2ccc(F)cc2)cc1OCC`, the results for the 50% effective concentration (EC50) in the assay with Plasmodium falciparum [1] and with Plasmodium falciparum [2] were over 15 µM and 4.48 µM, respectively.

For the compound `COc1cc(C(NC(=O)CCl)NC(=O)CCl)ccc1OCC(C)C`, the results for the EC50 in the assay with Plasmodium falciparum [1] and in the assay with Plasmodium falciparum [2] were 3.67 µM and 5.66 µM, respectively.

Regarding `COc1ccc(N(CC(=O)Nc2cccc(C(F)(F)F)c2)S(C)(=O)=O)cc1`, the 50% effective concentration (EC50) with Plasmodium falciparum [1] and in the assay on Plasmodium falciparum [2] was over 15 µM each time.

For the compound `CCC(C)c1ccc(NC(=O)c2ccc(Br)o2)c(O)c1` (stereo not drawn), the EC50 with Plasmodium falciparum [1] was 2.57 µM; in the assay on Plasmodium falciparum [2] it was 1.93 µM.

Consider `CC(=O)Nc1ccc(NC(=O)CSc2nn3c(=O)c(C)nnc3s2)cc1`, for which the EC50 with Plasmodium falciparum [1] was 4.96 µM; with Plasmodium falciparum [2] it was over 15 µM.

Consider `COCC(C)Oc1cccc(CN(Cc2ccncc2)C(=O)/C=C/c2cccc(F)c2)c1` (stereo not drawn), for which the results for the EC50 in the assay with Plasmodium falciparum [1] and in the assay with Plasmodium falciparum [2] were over 15 µM and 4.14 µM, respectively.
